Reference: patent publication US20240092784A1, “CONDENSED HETEROCYCLIC COMPOUND” (NISSAN CHEMICAL CORPORATION, priority 2020, published 2024)

biological target: human SPR (Homo sapiens (Human), UniProt P35270); assay: Evaluation Example 2: Measurement of human SPR inhibitory activity (seven concentrations, sepiapterin absorbance at 420 nm); type: biochemical; settings: Evaluation Example 2, seven concentrations 0.14 nM to 100 nM, 240 minutes at room temperature, read-out: IC50
Procedure, shortened: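 Reactions ran 240 min at room temperature in 100 mM Tris-HCl pH 7.5 with 0.01% BSA. They contained tag-cleaved, E. coli-expressed full-length human SPR (diluted to 150 ng/mL), seven compound concentrations from 0.14 to 100 nM, and sepiapterin/NADPH added as a 120 μM/160 μM solution. Inhibition was calculated from sepiapterin absorbance at 420 nm.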

human SPR, sequence (P35270 whole entry): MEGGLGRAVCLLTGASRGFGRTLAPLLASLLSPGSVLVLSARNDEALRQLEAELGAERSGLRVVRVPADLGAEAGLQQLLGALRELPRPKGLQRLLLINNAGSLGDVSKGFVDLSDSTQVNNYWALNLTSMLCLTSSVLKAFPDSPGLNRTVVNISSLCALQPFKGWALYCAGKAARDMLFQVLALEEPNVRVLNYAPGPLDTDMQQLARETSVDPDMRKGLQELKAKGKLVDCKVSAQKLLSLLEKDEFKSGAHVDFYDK

Structure (SMILES) | IC50 [nM]
CC(C)Cn1c(=O)c(C(=O)NC2CC2)c(O)n2ncc(/C=C/C(=O)N3CCC(OC4CCOCC4)CC3)c12 [compound 478, (E)-N-Cyclopropyl-7-hydroxy-4-isobutyl-5-oxo-3-(3-oxo-3-(4-((tetrahydro-2H-pyran-4-yl)oxy)piperidin-1-yl)prop-1-en-1-yl)-4,5-dihydropyrazolo[1,5-a]pyrimidine-6-carboxamide] | 0.95
CC(C)Cn1c(=O)c(C(=O)NC2CC2)c(O)n2ncc(/C=C/C(=O)N3CCC(C)(C)C3)c12 [compound 479, (E)-N-Cyclopropyl-3-(3-(3,3-dimethylpyrrolidin-1-yl)-3-oxoprop-1-en-1-yl)-7-hydroxy-4-isobutyl-5-oxo-4,5-dihydropyrazolo[1,5-a]pyrimidine-6-carboxamide] | 1.05
CC(C)Cn1c(=O)c(C(=O)NC2CC2)c(O)n2ncc(/C=C/C(=O)N3CCC(C(F)(F)F)CC3)c12 [compound 480, (E)-N-Cyclopropyl-7-hydroxy-4-isobutyl-5-oxo-3-(3-oxo-3-(4-(trifluoromethyl)piperidine-1-yl)prop-1-en-1-yl)-4,5-dihydropyrazolo[1,5-a]pyrimidine-6-carboxamide] | 1.12
CC(C)Cn1c(=O)c(C(=O)NC2CC2)c(O)n2ncc(/C=C/C(=O)N3CC[C@@H](F)C3)c12 [compound 481, (R,E)-N-Cyclopropyl-3-(3-(3-fluoropyrrolidin-1-yl)-3-oxoprop-1-en-1-yl)-7-hydroxy-4-isobutyl-5-oxo-4,5-dihydropyrazolo[1,5-a]pyrimidine-6-carboxamide] | 0.75
CC(C)Cn1c(=O)c(C(=O)NC2CC2)c(O)n2ncc(/C=C/C(=O)N3CC[C@H](C#N)C3)c12 [compound 482, (S,E)-3-(3-(3-Cyanopyrrolidin-1-yl)-3-oxoprop-1-en-1-yl)-N-cyclopropyl-7-hydroxy-4-isobutyl-5-oxo-4,5-dihydropyrazolo[1,5-a]pyrimidine-6-carboxamide] | 0.71
CC(C)Cn1c(=O)c(C(=O)NC2CC2)c(O)n2ncc(/C=C/C(=O)N3CC[C@@H](C#N)C3)c12 [compound 483, (R,E)-3-(3-(3-Cyanopyrrolidin-1-yl)-3-oxoprop-1-en-1-yl)-N-cyclopropyl-7-hydroxy-4-isobutyl-5-oxo-4,5-dihydropyrazolo[1,5-a]pyrimidine-6-carboxamide] | 0.69
CC(C)Cn1c(=O)c(C(=O)NC2CC2)c(O)n2ncc(/C=C/C(=O)N3CCC[C@H]3C(F)(F)F)c12 [compound 484, (S,E)-N-Cyclopropyl-7-hydroxy-4-isobutyl-5-oxo-3-(3-oxo-3-(2-(trifluoromethyl)pyrrolidine-1-yl)prop-1-en-1-yl)-4,5-dihydropyrazolo[1,5-a]pyrimidine-6-carboxamide] | 1.2
CC(C)Cn1c(=O)c(C(=O)NC2CC2)c(O)n2ncc(/C=C/C(=O)N3CCC[C@@H]3C(F)(F)F)c12 [compound 485, (R,E)-N-Cyclopropyl-7-hydroxy-4-isobutyl-5-oxo-3-(3-oxo-3-(2-(trifluoromethyl)pyrrolidine-1-yl)prop-1-en-1-yl)-4,5-dihydropyrazolo[1,5-a]pyrimidine-6-carboxamide] | 1.1
CC(C)Cn1c(=O)c(C(=O)NC2CC2)c(O)n2ncc(/C=C/C(=O)N3CCC[C@H]3C(N)=O)c12 [compound 486, (S,E)-3-(3-(2-Carbamoylpyrrolidin-1-yl)-3-oxoprop-1-en-1-yl)-N-cyclopropyl-7-hydroxy-4-isobutyl-5-oxo-4,5-dihydropyrazolo[1,5-a]pyrimidine-6-carboxamide] | 0.92
CC(C)Cn1c(=O)c(C(=O)NC2CC2)c(O)n2ncc(/C=C/C(=O)N3CCC[C@@H]3C(N)=O)c12 [compound 487, (R,E)-3-(3-(2-Carbamoylpyrrolidin-1-yl)-3-oxoprop-1-en-1-yl)-N-cyclopropyl-7-hydroxy-4-isobutyl-5-oxo-4,5-dihydropyrazolo[1,5-a]pyrimidine-6-carboxamide] | 0.97
CC(C)Cn1c(=O)c(C(=O)NC2CC2)c(O)n2ncc(/C=C/C(=O)N3CCC(S(C)(=O)=O)CC3)c12 [compound 488] | 0.87
CC(C)Cn1c(=O)c(C(=O)NC2CC2)c(O)n2ncc(/C=C/C(=O)N3CCOC(C)(C)C3)c12 [compound 489, (E)-N-Cyclopropyl-3-(3-(2,2-dimethylmorpholino)-3-oxoprop-1-en-1-yl)-7-hydroxy-4-isobutyl-5-oxo-4,5-dihydropyrazolo[1,5-a]pyrimidine-6-carboxamide] | 0.93
CC(C)Cn1c(=O)c(C(=O)NC2CC2)c(O)n2ncc(/C=C/C(=O)N3C[C@H](C)O[C@@H](C)C3)c12 [compound 490, N-Cyclopropyl-3-((E)-3-((2S,6S)-2,6-dimethylmorpholino)-3-oxoprop-1-en-1-yl)-7-hydroxy-4-isobutyl-5-oxo-4,5-dihydropyrazolo[1,5-a]pyrimidine-6-carboxamide] | 0.88
CC(C)Cn1c(=O)c(C(=O)NC2CC2)c(O)n2ncc(/C=C/C(=O)N3C[C@@H](C)O[C@H](C)C3)c12 [compound 491] | 0.82
CC(C)Cn1c(=O)c(C(=O)NC2CC2)c(O)n2ncc(/C=C/C(=O)NC3(C)CCOCC3)c12 [compound 492, (E)-N-Cyclopropyl-7-hydroxy-4-isobutyl-3-(3-((4-methyltetrahydro-2H-pyran-4-yl)amino)-3-oxoprop-1-en-1-yl)-5-oxo-4,5-dihydropyrazolo[1,5-a]pyrimidine-6-carboxamide] | 0.89
CC(C)Cn1c(=O)c(C(=O)NC2CC2)c(O)n2ncc(/C=C/C(=O)NC(C)(C)C3CC3)c12 [compound 493] | 0.94
CC(C)Cn1c(=O)c(C(=O)NC2CC2)c(O)n2ncc(/C=C/C(=O)N3CCOC[C@H]3C)c12 [compound 494, (R,E)-N-Cyclopropyl-7-hydroxy-4-isobutyl-3-(3-(3-methylmorpholino)-3-oxoprop-1-en-1-yl)-5-oxo-4,5-dihydropyrazolo[1,5-a]pyrimidine-6-carboxamide] | 0.73
CC(C)Cn1c(=O)c(C(=O)NC2CC2)c(O)n2ncc(/C=C/C(=O)N3CCC[C@H]3C#N)c12 [compound 495, (S,E)-3-(3-(2-Cyanopyrrolidin-1-yl)-3-oxoprop-1-en-1-yl)-N-cyclopropyl-7-hydroxy-4-isobutyl-5-oxo-4,5-dihydropyrazolo[1,5-a]pyrimidine-6-carboxamide] | 0.91
CC(C)Cn1c(=O)c(C(=O)NC2CC2)c(O)n2ncc(/C=C/C(=O)N3CCC[C@@H]3C#N)c12 [compound 496, (R,E)-3-(3-(2-Cyanopyrrolidin-1-yl)-3-oxoprop-1-en-1-yl)-N-cyclopropyl-7-hydroxy-4-isobutyl-5-oxo-4,5-dihydropyrazolo[1,5-a]pyrimidine-6-carboxamide] | 0.75
CC(C)Cn1c(=O)c(C(=O)NC2CC2)c(O)n2ncc(/C=C/C(=O)N(C)C3CC3)c12 [compound 497, (E)-N-Cyclopropyl-3-(3-(cyclopropyl(methyl)amino)-3-oxoprop-1-en-1-yl)-7-hydroxy-4-isobutyl-5-oxo-4,5-dihydropyrazolo[1,5-a]pyrimidine-6-carboxamide] | 0.59
CC(C)Cn1c(=O)c(C(=O)NC2CC2)c(O)n2ncc(/C=C/C(=O)N(C)CC#N)c12 [compound 498, (E)-3-(3-((Cyanomethyl)(methyl)amino)-3-oxoprop-1-en-1-yl)-N-cyclopropyl-7-hydroxy-4-isobutyl-5-oxo-4,5-dihydropyrazolo[1,5-a]pyrimidine-6-carboxamide] | 0.72
